ChEMBL document CHEMBL1143535 (Bioorg Med Chem Lett, 2005)
“And” between values parts separate entries of the source, which are not always exact repeats. Identical values can stand only once.

These compounds were tested against T1, Muscarinic acetylcholine receptor M2 (Rattus norvegicus, UniProt P10980) (assay: Affinity for rat Muscarinic acetylcholine receptor M2).
T1 sequence (P10980 whole entry): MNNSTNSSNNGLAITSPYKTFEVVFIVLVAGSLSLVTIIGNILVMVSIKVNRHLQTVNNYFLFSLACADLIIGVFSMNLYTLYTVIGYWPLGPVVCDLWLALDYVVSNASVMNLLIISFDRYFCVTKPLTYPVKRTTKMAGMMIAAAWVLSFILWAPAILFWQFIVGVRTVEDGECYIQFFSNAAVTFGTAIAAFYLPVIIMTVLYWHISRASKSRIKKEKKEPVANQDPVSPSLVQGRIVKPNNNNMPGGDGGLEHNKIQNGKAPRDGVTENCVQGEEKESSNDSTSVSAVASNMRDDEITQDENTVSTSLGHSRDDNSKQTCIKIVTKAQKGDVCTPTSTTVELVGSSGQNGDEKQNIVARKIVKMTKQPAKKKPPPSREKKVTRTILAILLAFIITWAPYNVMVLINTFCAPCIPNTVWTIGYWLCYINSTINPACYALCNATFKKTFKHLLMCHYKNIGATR
For `Cc1ccc(O)c(C(CCN2C[C@H]3C[C@H]3C2C)c2ccccc2)c1` (stereo not given in full), the Ki was 0.034 µM and 0.042 µM. Work on `Cc1ccc(OCc2ccccc2)c(C(CCN2C[C@@]3(C)C[C@@]3(C)C2)c2ccccc2)c1` (stereo not given in full) yielded a Ki of over 10 µM. Compound `Cc1ccc(O)c(C(CCN2C[C@H]3C[C@@]3(C)C2)c2ccccc2)c1` (stereo not given in full) has a Ki of 0.221 µM. In the case of `O=C(NCC#CCN1CC2CC2C1)C(O)(c1ccc(F)cc1)c1ccc(F)cc1` (stereo not given), the Ki is reported as 0.736 µM. In the case of `O=C(NCC#CCN1CC2CC2C1)C(O)(c1ccccc1)c1ccccc1` (stereo not given), the Ki is reported as 0.639 µM. `Cc1ccc(OCc2ccccc2)c(C(CCN2C[C@H]3C[C@H]3C2)c2ccccc2)c1` (stereo not given in full) was tested, and the Ki was over 10 µM. `Cc1ccc(OCc2ccccc2)c(C(CCN2C[C@H]3C[C@H]3C2C)c2ccccc2)c1` (stereo not given in full) was tested, and the Ki was over 10 µM. `Cc1ccc(O)c(C(CCN2C[C@@]3(C)C[C@@]3(C)C2)c2ccccc2)c1` (stereo not given in full) showed a Ki of over 1 µM. `O=C(NCC#CCN1CC2CC2C1)C(O)(c1ccccc1)C1CCCCC1` (stereo not given) was tested, and the Ki was 3.58 µM. In the case of `Cc1ccc(O)c(C(CCN2CC3C[C@@H]3C2)c2ccccc2)c1` (single isomer, unassigned), the Ki is reported as 0.105 µM.
